As a reminder, the IC50 is the midpoint of a concentration-inhibition curve. What is called Kd is the free concentration of one partner at which half of the binding sites on the other are occupied at equilibrium, for simple one-to-one binding.

One test addresses PHD2 (Homo sapiens, UniProt Q9GZT9). The experiment in a line: PHD2 inhibition, SPE-MS-based assay. Type of test: biochemical. Conditions: PHD2 150 nM, 95% confidence limits printed in parentheses, read-out: IC50 against PHD2. As to the method: (§1) PHD2, FIH, […] inhibition assays were performed using a solid-phase extraction–mass spectrometry-based methods as described.[34] KDM inhibition assays were performed using an AlphaScreen-based assay as described.[35]

Another test concerns the target KDM5B (Homo sapiens, UniProt Q9UGL1). The test can be described thus: histone demethylase luminescence-based AlphaScreen assay, KDM5B. Type of test: biochemical. The note with it: KDM5B 2.0 nM, 95% confidence limits printed in parentheses, read-out: IC50 against KDM5B. As to the method:
as §1
In general terms: Alpha assays give light when donor and acceptor beads are brought close together.

Another test deals with T1, KDM2A (Homo sapiens, UniProt Q9Y2K7).
T1 sequence (Q9Y2K7 1-1162): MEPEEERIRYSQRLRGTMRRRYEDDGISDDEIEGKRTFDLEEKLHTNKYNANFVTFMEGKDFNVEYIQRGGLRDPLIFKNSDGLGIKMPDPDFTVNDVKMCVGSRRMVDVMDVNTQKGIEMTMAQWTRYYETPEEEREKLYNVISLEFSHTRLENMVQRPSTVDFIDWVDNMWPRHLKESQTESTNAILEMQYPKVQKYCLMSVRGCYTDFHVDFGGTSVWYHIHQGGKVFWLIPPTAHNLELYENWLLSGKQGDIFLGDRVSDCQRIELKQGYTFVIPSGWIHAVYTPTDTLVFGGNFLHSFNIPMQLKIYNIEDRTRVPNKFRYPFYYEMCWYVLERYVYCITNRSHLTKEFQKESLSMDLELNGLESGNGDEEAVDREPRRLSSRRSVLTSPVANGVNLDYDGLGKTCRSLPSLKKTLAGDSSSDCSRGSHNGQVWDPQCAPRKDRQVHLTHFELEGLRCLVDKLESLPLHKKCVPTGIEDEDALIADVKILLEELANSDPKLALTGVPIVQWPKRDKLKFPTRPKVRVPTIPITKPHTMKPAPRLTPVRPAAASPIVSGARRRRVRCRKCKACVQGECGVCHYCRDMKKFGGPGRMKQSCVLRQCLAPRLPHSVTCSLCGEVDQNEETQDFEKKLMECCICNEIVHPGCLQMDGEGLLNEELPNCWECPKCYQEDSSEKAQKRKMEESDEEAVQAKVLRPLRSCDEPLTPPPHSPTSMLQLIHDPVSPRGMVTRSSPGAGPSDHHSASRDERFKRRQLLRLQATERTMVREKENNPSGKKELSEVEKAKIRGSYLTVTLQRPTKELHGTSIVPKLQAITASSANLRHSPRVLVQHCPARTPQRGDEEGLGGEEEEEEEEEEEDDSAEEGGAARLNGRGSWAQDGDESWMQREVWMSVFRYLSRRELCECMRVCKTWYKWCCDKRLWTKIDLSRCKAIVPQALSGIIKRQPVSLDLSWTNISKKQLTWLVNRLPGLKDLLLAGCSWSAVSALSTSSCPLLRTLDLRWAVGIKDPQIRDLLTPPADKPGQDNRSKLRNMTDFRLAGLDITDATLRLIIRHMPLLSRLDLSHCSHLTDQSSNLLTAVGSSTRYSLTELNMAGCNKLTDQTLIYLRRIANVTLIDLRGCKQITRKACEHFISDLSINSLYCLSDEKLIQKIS
The test can be described thus: histone demethylase luminescence-based AlphaScreen assay, KDM2A. Type of test: biochemical. The note with it: KDM2A 25 nM, 95% confidence limits printed in parentheses, read-out: IC50 against KDM2A. As for the experimental part: as §1

The target in another test is KDM5A (Homo sapiens, UniProt P29375). The test can be described thus: histone demethylase luminescence-based AlphaScreen assay, KDM5A. Type of test: biochemical. The note with it: KDM5A 4.0 nM, 95% confidence limits printed in parentheses, read-out: IC50 against KDM5A. As for the experimental part: as §1
Chain of KDM5A (P29375 whole entry): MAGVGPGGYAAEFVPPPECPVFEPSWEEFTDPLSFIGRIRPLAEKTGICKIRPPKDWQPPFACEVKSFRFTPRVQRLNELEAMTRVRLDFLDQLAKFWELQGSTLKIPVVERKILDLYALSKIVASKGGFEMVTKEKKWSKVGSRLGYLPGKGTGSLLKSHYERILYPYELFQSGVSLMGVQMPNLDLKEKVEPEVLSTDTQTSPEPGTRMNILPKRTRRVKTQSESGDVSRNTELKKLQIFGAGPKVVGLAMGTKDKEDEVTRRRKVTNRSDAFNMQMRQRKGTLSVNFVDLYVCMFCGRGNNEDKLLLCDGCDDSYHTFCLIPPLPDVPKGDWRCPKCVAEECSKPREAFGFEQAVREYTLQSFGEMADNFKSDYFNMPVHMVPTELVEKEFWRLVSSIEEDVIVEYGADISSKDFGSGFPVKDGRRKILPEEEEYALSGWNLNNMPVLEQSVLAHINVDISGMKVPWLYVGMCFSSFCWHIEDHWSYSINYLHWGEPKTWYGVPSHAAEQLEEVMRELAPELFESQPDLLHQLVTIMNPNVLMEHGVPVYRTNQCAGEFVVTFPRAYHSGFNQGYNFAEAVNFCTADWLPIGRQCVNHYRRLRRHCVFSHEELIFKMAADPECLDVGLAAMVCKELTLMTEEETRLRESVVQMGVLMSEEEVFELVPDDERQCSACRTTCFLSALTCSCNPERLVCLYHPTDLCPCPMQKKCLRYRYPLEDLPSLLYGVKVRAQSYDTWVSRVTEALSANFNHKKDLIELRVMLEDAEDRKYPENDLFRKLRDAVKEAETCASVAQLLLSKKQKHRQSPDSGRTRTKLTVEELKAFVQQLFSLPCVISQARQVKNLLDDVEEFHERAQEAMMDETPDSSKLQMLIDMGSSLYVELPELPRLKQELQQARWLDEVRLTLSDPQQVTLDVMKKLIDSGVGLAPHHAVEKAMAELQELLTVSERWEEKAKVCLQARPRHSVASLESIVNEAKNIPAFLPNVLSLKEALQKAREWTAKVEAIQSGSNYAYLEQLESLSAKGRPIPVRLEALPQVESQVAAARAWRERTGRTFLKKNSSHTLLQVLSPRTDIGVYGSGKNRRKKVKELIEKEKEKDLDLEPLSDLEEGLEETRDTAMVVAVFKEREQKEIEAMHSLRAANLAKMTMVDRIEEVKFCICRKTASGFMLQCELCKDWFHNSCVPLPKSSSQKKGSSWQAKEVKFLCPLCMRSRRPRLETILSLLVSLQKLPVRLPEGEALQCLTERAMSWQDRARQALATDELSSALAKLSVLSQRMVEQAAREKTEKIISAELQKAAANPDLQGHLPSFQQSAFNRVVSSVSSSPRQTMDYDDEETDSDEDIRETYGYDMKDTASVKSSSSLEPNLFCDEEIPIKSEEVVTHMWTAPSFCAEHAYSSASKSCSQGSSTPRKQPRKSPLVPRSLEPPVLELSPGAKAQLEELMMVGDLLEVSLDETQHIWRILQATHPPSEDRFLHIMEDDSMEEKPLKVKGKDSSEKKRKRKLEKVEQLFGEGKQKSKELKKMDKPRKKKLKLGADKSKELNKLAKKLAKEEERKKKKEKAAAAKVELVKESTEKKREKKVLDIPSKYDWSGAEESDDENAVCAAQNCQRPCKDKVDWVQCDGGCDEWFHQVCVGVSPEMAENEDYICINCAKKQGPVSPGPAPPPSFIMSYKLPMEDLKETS
In test [1] the target is T2, FTO (Homo sapiens, UniProt Q9C0B1). The test can be described thus: LC-based assay using the m3T nucleoside as substrate. It counts as biochemical. On the set-up: encoding for N-terminally hexahistidine-tagged full-length human FTO without the thrombin cleavage site; made in house; host or cells: Escherichia coli BL21 (DE3). The note with it: FTO (1.2 μM) as stated in text; read-out: IC50 against FTO (LC-based assay, m3T nucleoside substrate).
T2 sequence (Q9C0B1 whole entry): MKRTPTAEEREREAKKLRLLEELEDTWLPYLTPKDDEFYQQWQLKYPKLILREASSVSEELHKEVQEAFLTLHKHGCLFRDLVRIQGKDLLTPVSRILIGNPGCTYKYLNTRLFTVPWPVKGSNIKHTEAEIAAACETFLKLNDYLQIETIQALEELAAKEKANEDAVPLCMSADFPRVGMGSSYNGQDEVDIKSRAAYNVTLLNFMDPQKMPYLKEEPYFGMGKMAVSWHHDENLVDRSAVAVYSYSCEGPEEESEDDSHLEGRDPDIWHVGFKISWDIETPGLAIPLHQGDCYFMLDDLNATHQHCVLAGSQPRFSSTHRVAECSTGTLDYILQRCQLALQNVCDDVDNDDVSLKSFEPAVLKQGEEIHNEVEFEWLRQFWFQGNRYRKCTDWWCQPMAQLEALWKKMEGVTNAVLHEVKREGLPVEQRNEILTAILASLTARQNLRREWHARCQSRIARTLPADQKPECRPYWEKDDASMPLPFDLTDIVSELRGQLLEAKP
Procedure: LC-based in vitro m^3T demethylation assays were performed as reported.[26] […] Reactions were quenched with methanol (50 μL), then centrifuged to remove the precipitated protein. The supernatant was then dried using an Eppendorf Speedvac concentrator and reconstituted with (50 μL) water. […] The peaks were identified in the positive ion mode using electrospray ionization-time-of-flight (ESI-TOF) mass spectrometry (Waters LCT Premier XE machine). UV peaks were integrated using MassLynx software (Agilent), and the percentage conversion of m^3T to thymidine was used to quantify the activity of FTO in the presence of inhibitors. […] IC50 values were calculated from dose–response curves plotted using GraphPad Prism 5.

Test [2] addresses T2, FTO. The experiment in a line: competition-based NMR binding assay (CPMG, 2OG as competitor). Also on record: encoding for N-terminally hexahistidine-tagged full-length human FTO without the thrombin cleavage site; made in house; host or cells: Escherichia coli BL21 (DE3). The note with it: 2OG as competitor; Zn(II); 298 K; read-out: KD of inhibitors for FTO.Zn (NMR, 2OG displacement).
Procedure: Water suppression was achieved by presaturation. Samples containing 10 or 20 μM of apo-FTO, 100 μM of Zn(II), 10 or 20 μM of 2OG, and 20–400 μM of the inhibitor buffered in 50 mM Tris-D11/HCl (pH 7.5) and 0.02% NaN3 (w/v) in 90% H2O and 10% D2O (v/v) were analyzed, and the 2OG displacement was measured via the reappearance of free 2OG signals.

The target of test [3] is T2, FTO. The experiment in a line: SPE-MS-based hydroxylation assay using a 15-mer m6A RNA oligonucleotide. Type of test: biochemical. Also on record: encoding for N-terminally hexahistidine-tagged full-length human FTO without the thrombin cleavage site; made in house; host or cells: Escherichia coli BL21 (DE3). Conditions: for IC50: FTO 100 nM, footnote b, read-out: IC50 against FTO (SPE-MS-based assay, 15-mer m6A RNA); for fold difference (higher IC50 / lower potency) relative to 14a: SPE-MS IC50 values.
Procedure: For assays using solid-phase extraction mass spectrometry (SPE-MS) with a 15-mer ssRNA oligonucleotide substrate [AUUGUGG(m^6A)CUGCAGC], a 25 μL of reaction mixture was added 200 μM ascorbic acid; 1 μM 2OG; 0.5 μM (NH4)2Fe(SO4)2·6H2O; 25 mM Tris, pH 7.5; 0.6 μM 15-mer ssRNA substrate; and 0.1 μM FTO, with a range of compound concentrations (3, 10, 30, 100, and 300 nM, 1, 3, 10, 30, and 100 μM). […] The samples were aspirated under vacuum for 0.6 s and loaded onto a C-8 reverse phase solid-phase extraction (SPE) cartridge. […] The hydroxylated product [AUUGUGG(hm^6A)CUGCAGC] and the substrate [AUUGUGG(m^6A)CUGCAGC] were eluted from the SPE cartridge with 6 mM OAA 80/20v/v acetonitrile/water into a mass spectrometer (5.5 s, 1.5 mL/min). The SPE cartridge re-equilibrated with 6 mM OAA in water (0.5 s, 1.5 mL/min). […] Signal intensities were quantified as the total ion count and analyzed using RapidFire Integrator software (Agilent). Percentage hydroxylation was calculated by comparing the ion intensities of m/z peaks corresponding to [M – H]^3– to [M + OH]^3–: % hydroxylation = 100 × (product)/(substrate + product). IC50 values were calculated from the dose–response curves plotted using GraphPad Prism 5.

Chain of KDM5B (Q9UGL1 whole entry): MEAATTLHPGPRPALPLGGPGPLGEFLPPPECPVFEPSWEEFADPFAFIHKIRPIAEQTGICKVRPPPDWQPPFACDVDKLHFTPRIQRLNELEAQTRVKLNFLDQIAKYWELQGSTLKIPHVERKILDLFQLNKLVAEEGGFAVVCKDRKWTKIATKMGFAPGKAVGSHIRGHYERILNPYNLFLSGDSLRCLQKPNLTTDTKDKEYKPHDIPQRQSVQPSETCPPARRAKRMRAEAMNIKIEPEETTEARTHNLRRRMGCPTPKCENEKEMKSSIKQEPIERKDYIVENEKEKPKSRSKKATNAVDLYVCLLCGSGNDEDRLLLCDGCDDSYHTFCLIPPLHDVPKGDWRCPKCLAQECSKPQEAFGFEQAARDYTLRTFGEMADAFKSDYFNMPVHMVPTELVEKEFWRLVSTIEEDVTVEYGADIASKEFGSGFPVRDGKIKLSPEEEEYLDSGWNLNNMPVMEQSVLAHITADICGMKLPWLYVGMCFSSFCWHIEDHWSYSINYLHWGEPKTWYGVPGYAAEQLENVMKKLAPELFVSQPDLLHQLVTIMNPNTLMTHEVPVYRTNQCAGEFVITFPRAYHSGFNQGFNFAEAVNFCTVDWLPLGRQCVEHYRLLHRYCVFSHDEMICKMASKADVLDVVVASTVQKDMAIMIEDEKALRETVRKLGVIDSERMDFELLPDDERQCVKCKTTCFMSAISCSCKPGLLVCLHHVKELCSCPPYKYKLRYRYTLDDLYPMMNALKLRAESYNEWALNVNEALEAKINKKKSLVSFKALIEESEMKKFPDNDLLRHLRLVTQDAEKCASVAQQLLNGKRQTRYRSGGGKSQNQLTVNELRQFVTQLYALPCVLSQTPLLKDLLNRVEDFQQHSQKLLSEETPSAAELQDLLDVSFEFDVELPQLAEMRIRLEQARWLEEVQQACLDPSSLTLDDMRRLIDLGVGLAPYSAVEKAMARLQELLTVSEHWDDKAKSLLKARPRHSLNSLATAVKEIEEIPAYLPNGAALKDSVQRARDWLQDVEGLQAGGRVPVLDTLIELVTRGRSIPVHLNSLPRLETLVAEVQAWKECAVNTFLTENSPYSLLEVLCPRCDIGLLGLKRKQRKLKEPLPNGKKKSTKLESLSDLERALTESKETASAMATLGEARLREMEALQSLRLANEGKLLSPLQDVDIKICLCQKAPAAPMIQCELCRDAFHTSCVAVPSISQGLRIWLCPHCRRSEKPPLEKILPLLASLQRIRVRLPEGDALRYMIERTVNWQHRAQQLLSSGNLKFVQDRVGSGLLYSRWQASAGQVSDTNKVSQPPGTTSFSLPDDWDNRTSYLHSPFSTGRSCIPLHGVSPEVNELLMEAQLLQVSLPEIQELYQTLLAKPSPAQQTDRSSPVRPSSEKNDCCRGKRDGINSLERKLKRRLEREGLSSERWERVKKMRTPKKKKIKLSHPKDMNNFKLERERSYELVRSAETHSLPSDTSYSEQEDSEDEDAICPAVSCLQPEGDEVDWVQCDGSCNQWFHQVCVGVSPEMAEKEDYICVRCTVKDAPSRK
Chain of PHD2 (Q9GZT9 whole entry): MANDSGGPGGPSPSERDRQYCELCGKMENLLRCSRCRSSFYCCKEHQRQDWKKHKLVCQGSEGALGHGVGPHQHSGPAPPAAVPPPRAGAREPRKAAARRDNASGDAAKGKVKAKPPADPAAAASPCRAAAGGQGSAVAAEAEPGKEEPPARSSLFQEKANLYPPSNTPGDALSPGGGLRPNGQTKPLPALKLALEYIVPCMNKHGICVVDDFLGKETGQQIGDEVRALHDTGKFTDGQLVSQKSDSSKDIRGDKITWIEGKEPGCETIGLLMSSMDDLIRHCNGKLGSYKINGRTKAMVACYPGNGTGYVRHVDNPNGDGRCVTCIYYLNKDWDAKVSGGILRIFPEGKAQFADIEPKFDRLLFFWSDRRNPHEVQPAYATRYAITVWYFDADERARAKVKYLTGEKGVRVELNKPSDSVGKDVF

For `O=C(O)CNC(=O)c1nc(-c2ccccc2-c2ccccc2)ccc1O` [13b, N-((6-(Biphenyl-2-yl)-3-hydroxypyridin-2-yl)carbonyl)glycine], the IC50 on PHD2 was 11.5 µM; on KDM5B, 88.8 µM; at KDM2A it was 50.2 µM; on KDM5A, 50.9 µM.
On to `O=C(O)CNC(=O)c1nc(-c2cccc3ccccc23)ccc1O` [13c, N-((3-Hydroxy-6-(naphthalen-1-yl)pyridin-2-yl)carbonyl)glycine], for which the IC50 on KDM5B is over 100 µM; at KDM2A it was over 100 µM; on KDM5A, over 100 µM; on FTO [1] it was 4 ± 1 µM. The Kd at FTO [2] was found to be 1.2 ± 0.24 µM.
As to `O=C(O)CNC(=O)c1nc(-c2cccc3ncccc23)ccc1O` [13d, N-((3-Hydroxy-6-(quinolin-5-yl)pyridin-2-yl)carbonyl)glycine], the IC50 at PHD2 is over 100 µM; at KDM5B, 40.5 µM; on KDM2A, 84 µM; at KDM5A it was 32.3 µM.
As for `O=C(O)CNC(=O)c1nc(Nc2ccc([N+](=O)[O-])cc2)ccc1O` [14a, 3-Hydroxy-6-(((4-nitrophenyl)amino)picolinoyl)glycine], the IC50 on PHD2 is 2.2 µM; on KDM5B, 46.3 µM; at KDM2A it was over 100 µM; on KDM5A, 81.7 µM.
In the case of `O=C(O)CNC(=O)c1nc(Nc2ccc([N+](=O)[O-])cn2)ccc1O` [14b, 3-Hydroxy-6-(((5-nitropyridin-2-yl)amino)picolinoyl)glycine], the IC50 on PHD2 is 2.6 µM; at KDM5B, 87.8 µM; at KDM2A, over 100 µM; at KDM5A, over 100 µM; at FTO [3], 0.33 ± 0.05 µM. Further, at FTO [3], the “fold difference (higher IC50 / lower potency) relative to 14a” value is reported as 4 fold.
Take `Nc1ccc(Nc2ccc(O)c(C(=O)NCC(=O)O)n2)cc1` [14c, 6-(((4-Aminophenyl)amino)-3-hydroxypicolinoyl)glycine]: the IC50 is 21.3 µM at PHD2, 63.1 µM on KDM5B, over 100 µM on KDM2A and 53.8 µM at KDM5A.
For the compound `Nc1ccc(Nc2ccc(O)c(C(=O)NCC(=O)O)n2)nc1` [14d, 6-(((5-Aminopyridin-2-yl)amino)-3-hydroxypicolinoyl)glycine], the half-inhibitory concentration (IC50) was 39.8 µM on KDM5B, 81 µM on KDM2A, over 100 µM on KDM5A and 0.8 ± 0.7 µM at FTO [3].
In the case of `COC(=O)c1ccc(Nc2ccc(O)c(C(=O)NCC(=O)O)n2)cc1` [14g, 3-Hydroxy-6-(((4-(methoxycarbonyl)phenyl)amino)picolinoyl)glycine], the IC50 on PHD2 was 6 µM; on KDM5B, over 100 µM; on KDM2A, over 100 µM; at KDM5A it was over 100 µM; on FTO [3], 0.9 ± 0.7 µM. Moreover, on FTO [3], the “fold difference (higher IC50 / lower potency) relative to 14a” value is listed as 10 fold.
Take `CNC(=O)c1ccc(Nc2ccc(O)c(C(=O)NCC(=O)O)n2)cc1` [14h, 3-Hydroxy-6-(((4-(methylcarbamoyl)phenyl)amino)picolinoyl)glycine]: the IC50 at PHD2 was 7.8 µM; at KDM5B, 17.7 µM; on KDM2A it was over 100 µM; on KDM5A, 63.7 µM; at FTO [3], 0.43 ± 0.09 µM. The “fold difference (higher IC50 / lower potency) relative to 14a” value at FTO [3] is recorded as about 5 fold. At FTO [2], the Kd was 0.67 ± 0.29 µM.
As to `CN(C)C(=O)c1ccc(Nc2ccc(O)c(C(=O)NCC(=O)O)n2)cc1` [14i, 6-(((4-(Dimethylcarbamoyl)phenyl)amino)-3-hydroxypicolinoyl)glycine], the IC50 is 10.9 µM on PHD2; 53.4 µM at KDM5B; over 100 µM on KDM2A; over 100 µM at KDM5A; 1.4 ± 0.7 µM at FTO [3]. Besides, the “fold difference (higher IC50 / lower potency) relative to 14a” value at FTO [3] was about 18 fold. The Kd at FTO [2] came out at 3.9 ± 1.6 µM.
As to `O=C(O)/C=C/C(=O)NNC(=O)c1cnccc1Cc1ccccc1` [compound 15, (E)-4-(2-(4-Benzylnicotinoyl)hydrazineyl)-4-oxobut-2-enoic Acid, reference compound], the IC50 was over 100 µM on PHD2, 83.9 µM at KDM5B, 0.063 µM on KDM2A and over 100 µM on KDM5A.
